Laboratory results: PMC8703873, “Structure and Activity of a Selective Antibiofilm Peptide SK-24 Derived from the NMR Structure of Human Cathelicidin LL-37” (Pharmaceuticals, 2021)
Values after ≈ are worked out from the molar mass of the structure shown. Where two headings read alike, the source gives them in different places. No end group written: not given here.

How the values were obtained:
S. aureus USA300 LAC [1] = test: Membrane depolarization (DiBAC4(3)); type: cell-based, Staphylococcus aureus; conditions: DiBAC4(3) fluorescence; for Membrane depolarization ability (order, words): peptide 8 µM, similar trends at 16 and 32 µM
Description: The experiment was conducted as described. In brief, an overnight culture of S. aureus USA300 LAC was subcultured in a fresh TSB medium and grown to the exponential phase. Cells were spun using centrifugation and washed twice with PBS, and resuspended in twice the volume of PBS containing 25 mM glucose and incubated at 37 °C for 15 min. For membrane depolarization measurements, 500 nM (final concentration) of the dye DiBAC4 (3) (bis-(1,3- dibutylbarbituric acid) trimethine oxonol) (AnaSpec, San Jose, CA, USA) was added and vortexed gently. Aliquots of 90 μL of the energized bacteria solution were loaded to the wells, and the plate was fed into a FLUOstar Omega microplate reader. Fluorescence was read for 20 min at excitation and emission wavelengths of 485 and 520 nm, respectively, to get dye normalization. Then 10 μL of diluted peptide solutions were added and gently mixed. Fluorescence readings were recorded for 40 min, where Triton X-100 (0.1%) was used as a positive control.

Human red blood cells = test: Hemolytic assay; type: cell-based; conditions: 1 h
Description: Human red blood cells (hRBCs, the UNMC Blood Bank) were washed three to five times with saline (Fisher Scientific, Waltham, MA, USA) at 800 g for 10 min each time, until the supernatant was clear. The supernatant was discarded, and hRBCs were suspended in saline at a final density of 2%. Ninety microliters of hRBC suspensions were added to each well of 96-well plates containing 10 µL of 10× serially diluted peptides. After incubation at 37 °C for 1 h, the plates were centrifuged at 1500 rpm for 5 min. About 80 µL of the supernatant was carefully pipetted to a new 96-well microplate and read at 545 nm to measure the amount of hemoglobin released. The positive control was 1% Triton X-100, and the negative control was saline. The percentage of hRBC lysis was calculated based on the hemoglobin released.

[2] = system: S. aureus USA300 LAC preformed biofilms; conditions: S. aureus USA300 LAC and other clinical strains (USA200, USA400, Mu50); cited from earlier work
Description: Here, we compared the antibiofilm activity of SK-24 with that of GF-17, GI-20, and 17BIPHE2 against the 24 h preformed biofilms of S. aureus USA300. […] Only SK-24 a ...

[3] = system: A. baumannii B28-16 preformed biofilms; test: Disruption of preformed biofilms (XTT); type: cell-based, Acinetobacter baumannii; conditions: for Biofilm disruption: 72 h preformed biofilms, peptide 64 μM, highest concentration tested; for Disruption of 48 h biofilms: biofilms established for 48 h; for Disruption of 48 h biofilms / Reduction of 24 h biofilms: 24 h treatment; for Reduction of 24 h biofilms: biofilms established in 24 h
Description: (§1) The antibiofilm activities of peptides against the preformed biofilms of A. baumannii B28-16 and S. aureus USA300 LAC were evaluated as follows. Bacteria in the logarithmic growth phase were adjusted to a cell density of 10^5 colony forming unit (CFU)/mL. Two hundred microliter cells were seeded into each well of the 96-well plates. The plates were incubated at 37 °C to allow for the formation of biofilm for 24, 48, and 72 h, respectively. The planktonic cells were then removed, followed by a wash. The biofilms were then treated with 20 µL of 10× two-fold diluted peptides and 180 µL of fresh TSB media for 24 h at 37 °C. Cultures treated with water without peptide served as the positive control, and media treated with water was used as the negative control. To quantify the antibiofilm activity of the peptides, the XTT [2, 3-bis (2-methyloxy-4-nitro-5-sulfophenyl)-2H-tertazolium-5-carboxanilide] assay staining method was used to quantitate the live cells. Absorbance was read at 450 nm using a ChroMate microliter plate reader. The percentage biofilm growth for the peptide was plotted by assuming 100% biofilm growth in untreated bacterial control wells. Data were represented as mean ± standard deviation (SD). The data are statistically significant at p < 0.05. Plots were generated using GraphPad Prism v7 (GraphPad Software, San Diego, CA, USA).

E. faecium V284-17 = type: cell-based, Enterococcus faecium
[4] = HPLC retention time (measure of peptide hydrophobicity); type: physicochemical; conditions: chromatographic, Waters C8 symmetry hydrophobic column, as described in ref 34; used as indicator of peptide hydrophobicity
Excerpt: In the membrane-bound LL-37 structure determined by 3D NMR spectroscopy, a hydrophobic gap exists (Figure 1A). The location of a hydrophilic S9 on the hydrophobic surface of LL-37 splits the long helix into two hydrophobic domains (gold sticks). The SK-24 peptide we identified here corresponds to the long hydrophobic domain [26]. The amino acid sequence of SK-24, along with LL-37 and its derived antimicrobial peptides, is depicted in Figure 1B. Peptide parameters, including net charge, hydrophobic content, Boman index, GRAVY, hydrophobicity, and hydrophobic moment of each peptide, were calculated using online tools, such as the APD [8] and HeliQuest (Table 1). Except for the shortest RI-10 (net charge +3), LL-37 and its other derived peptides have net charges +5 or +6, above the average net charge (+3.3) of natural antimicrobial peptides registered in the APD [8, 35, 36]. Overall, the hydrophobic percentages (Pho) of these peptides calculated in the APD are proportional to the hydrophobicity and hydrophobic moment calculated by HeliQuest in Table 1. Of note, LL-37 has the highest net charge (+6) and Boman index but the lowest Pho%, GRAVY, and hydrophobic moment.
All peptides were chemically synthesized and purified to >95% (Genemed Synthesis, San Antonio, TX, USA). The quality of each peptide was determined based on mass spectrometry (MS) and high-performance liquid chromatography (HPLC). Peptide stock solutions were freshly made by solubilizing in autoclaved distilled water, and their concentrations were quantitated using UV spectroscopy based on the absorbance difference at 215 and 225 nm as described. Peptide retention time was measured on a Waters C8 symmetry hydrophobic column as described. Other chemicals were purchased from Sigma (St. Louis, MO, USA) unless specified.

E. coli E423-17 = type: cell-based, Escherichia coli
Description: (§2) The antibiotic-resistant pathogens used in this study include the Gram-positive bacteria Enterococcus faecium V286-17 and Staphylococcus aureus USA300 LAC and the Gram-negative bacteria Klebsiella pneumoniae E406-17, Acinetobacter baumannii B28-16, Pseudomonas aeruginosa E411-17, and Escherichia coli E423-17. All bacteria were cultivated in tryptic soy broth (TSB) at 37 °C, 220 rpm.
(§3) The antibacterial activity of peptides was evaluated using a standard broth microdilution protocol with minor modifications. In brief, peptides were made at various concentrations, 10 μL per well in a 96-well polystyrene microplate. Logarithmic phase bacterial cultures (i.e., optical density (OD) at 600 nm ≈ 0.5) were diluted to 0.001 OD, and aliquots of 90 μL were added to each well. Untreated bacterial culture and medium were included as positive and negative controls, respectively. Plates were incubated at 37 °C overnight and read at 630 nm using a ChroMate Microplate Reader (Awareness Technology, Palm City, FL, USA). […] Our previously designed peptide 17BIPHE2 [32] was included as a positive control, and RI-10, a peptide without antibacterial activity in rich media, was utilized as a negative control.

S. aureus USA300 = type: cell-based, Staphylococcus aureus
Description: as §2, §3

[5] = system: S. aureus USA300 LAC preformed biofilms; test: Disruption of preformed biofilms (XTT); type: cell-based, Staphylococcus aureus; conditions: for Antibiofilm effect on 24 h preformed biofilms: 24 h preformed biofilms of S. aureus USA300, XTT
Description: as §1

P. aeruginosa E411-17 = type: cell-based, Pseudomonas aeruginosa; conditions: for MIC: E411-17
Description: as §2, §3

A. baumannii B28-16 [6] = type: cell-based, Acinetobacter baumannii
Description: as §2, §3

K. pneumoniae E406-17 = type: cell-based, Klebsiella pneumoniae; conditions: for MIC: E406-17
Description: as §2, §3

S. aureus USA300 LAC [7] = test: Membrane permeabilization (propidium iodide); type: cell-based, Staphylococcus aureus; conditions: peptide 8 µM; propidium iodide fluorescence, 2 h, PBS, 37 °C
Description: (§4) Membrane permeabilization was evaluated as described. In brief, bacteria were inoculated and grown overnight. A second inoculation was made and let bacteria grow to the exponential phase. Bacteria were then spun, washed, and resuspended in the same volume of PBS. A series of peptide solutions (10×) was made via two-fold dilution in a 96-well plate (10 µL each). All wells were aliquoted with 2 µL of propidium iodide (20 µM), followed by adding 88 µL of S. aureus USA300 or A. baumannii B28-16 (OD600 ~0.11 in PBS). The plate was incubated at 37 °C with continuous shaking at 100 rpm in a FLUOstar Omega microplate reader (BMG Labtech Inc., Cary, NC, USA). Fluorescence was recorded every 5 min for 2 h with excitation and emission wavelengths of 485 and 620 nm. The data were analyzed by the vendor’s software using averaged values from duplicated experiments.

A. baumannii B28-16 [8] = test: Membrane permeabilization (propidium iodide); type: cell-based, Acinetobacter baumannii; conditions: peptide 16 µM; propidium iodide fluorescence, 2 h, PBS, 37 °C
Description: as §4

[9] = 2% hRBCs in saline, 37 °C, tested 12.5–200 µM

Compound: CC[C@H](C)[C@H](NC(=O)[C@H](CCCCN)NC(=O)[C@H](CCC(=O)O)NC(=O)[C@H](CCCCN)NC(=O)[C@H](CO)NC(=O)[C@H](CCCCN)NC(=O)[C@H](CCCNC(=N)N)NC(=O)[C@H](Cc1ccccc1)NC(=O)[C@H](Cc1ccccc1)NC(=O)[C@H](CC(=O)O)NC(=O)CNC(=O)[C@H](CC(C)C)NC(=O)[C@@H](N)CC(C)C)C(=O)NCC(=O)N[C@@H](CCCCN)C(=O)N[C@@H](CCC(=O)O)C(=O)N[C@@H](Cc1ccccc1)C(=O)N[C@@H](CCCCN)C(=O)N[C@@H](CCCNC(=N)N)C(=O)N[C@H](C(=O)N[C@H](C(=O)N[C@@H](CCC(N)=O)C(=O)N[C@@H](CCCNC(=N)N)C(=O)N[C@H](C(=O)N[C@@H](CCCCN)C(=O)N[C@@H](CC(=O)O)C(=O)N[C@@H](Cc1ccccc1)C(=O)N[C@@H](CC(C)C)C(=O)N[C@@H](CCCNC(=N)N)C(=O)N[C@@H](CC(N)=O)C(=O)N[C@@H](CC(C)C)C(=O)N[C@H](C(=O)N1CCC[C@H]1C(=O)N[C@@H](CCCNC(=N)N)C(=O)N[C@H](C(=O)N[C@@H](CCC(=O)O)C(=O)N[C@@H](CO)C(=O)O)[C@@H](C)O)C(C)C)[C@@H](C)CC)C(C)C)[C@@H](C)CC [LL-37]
- Membrane depolarization ability (order, words) (S. aureus USA300 LAC [1]): GI-20 > 17BIPHE2 > GF-17~SK-24 > LL-37
- HC50 (50% hemolytic concentration) (Human red blood cells; [9]): ~ 175 µM
- Hemolytic activity (Human red blood cells; [9]): no hemolysis below 100 µM
- Hemolysis (Human red blood cells; peptide 200 µM, 2% hRBCs in saline, 37 °C, read at 545 nm): 70%
- Disruption of 24 h preformed biofilms (words, found previously) [2]: neither LL-37 nor RI-10 was able to disrupt
- Disruption of preformed biofilms ([3]; biofilms formed for 24, 48 and 72 h, peptide at 8, 16, 32 or 64 μM for 24 h): unable to disrupt
- MIC (E. faecium V284-17; E. faecium V284-17, 100% TSB, 37 °C overnight, read at 630 nm): 32 µM (≈ 144 µg/mL)
- tHPLC (HPLC retention time) [4]: 12.548 min

Compound: GFKRIVQRIKDFLRNLV-NH2 (C-terminus assumed) [GF-17]
- MIC (E. coli E423-17): 16 µM
- MIC (S. aureus USA300): 2 to 4 µM
- Antibiofilm effect on 24 h preformed biofilms [5]: antibiofilm effect in a dose-dependent manner
- MIC (P. aeruginosa E411-17): 16 µM
- Membrane depolarization ability (order, words) (S. aureus USA300 LAC [1]): GI-20 > 17BIPHE2 > GF-17~SK-24 > LL-37
- MIC (A. baumannii B28-16 [6]): 4 µM
- HC50 (50% hemolytic concentration) (Human red blood cells; red cells of human): ~ 175 µM
- Disruption of 24 h preformed biofilms (words, found previously) [2]: highly effective
- MIC (K. pneumoniae E406-17): >32 µM
- Biofilm disruption [3]: 30–50%
- Disruption of 48 h biofilms [3]: dose-dependent biofilm disruption
- Reduction of 24 h biofilms [3]: dose-dependent manner
- MIC (E. faecium V284-17; V284-17): 2 µM
- tHPLC (HPLC retention time) [4]: 12.197 min

Compound: GIKEFKRIVQRIKDFLRNLV-NH2 [GI-20]
- MIC (E. coli E423-17): 32 µM
- MIC (S. aureus USA300): 2 to 4 µM
- Membrane permeation (S. aureus USA300 LAC [7]): more powerful
- Antibiofilm effect on 24 h preformed biofilms [5]: antibiofilm effect in a dose-dependent manner
- MIC (P. aeruginosa E411-17): >32 µM
- Membrane depolarization ability (order, words) (S. aureus USA300 LAC [1]): GI-20 > 17BIPHE2 > GF-17~SK-24 > LL-37
- MIC (A. baumannii B28-16 [6]): 8 µM
- HC50 (50% hemolytic concentration) (Human red blood cells; red cells of human): ~ 160 µM
- Membrane permeation (A. baumannii B28-16 [8]): superior to SK-24
- MIC (K. pneumoniae E406-17): >32 µM
- Biofilm disruption [3]: 30–50%
- Disruption of 48 h biofilms [3]: only worked at 64 μM
- Reduction of 24 h biofilms [3]: dose-dependent manner
- MIC (E. faecium V284-17; V284-17): 2 µM
- tHPLC (HPLC retention time) [4]: 12.681 min

Compound: SKEKIGKEFKRIVQRIKDFLRNLV-NH2 [SK-24]
- MIC (E. coli E423-17): 16 µM
- Membrane permeation (S. aureus USA300 LAC [7]): weakly permeated
- Antibiofilm effect on 24 h preformed biofilms [5]: antibiofilm effect in a dose-dependent manner
- Staphylococcal biofilm remaining (reduced to) ([5]; 24 h preformed biofilms, peptide 32 μM, relative to untreated control = 100%): ~ 25%
- MIC (P. aeruginosa E411-17): >32 µM
- Effect on growth at 32 μM (P. aeruginosa E411-17; P. aeruginosa E411-17, peptide 32 μM): poor effect
- Membrane depolarization ability (order, words) (S. aureus USA300 LAC [1]): GI-20 > 17BIPHE2 > GF-17~SK-24 > LL-37
- Membrane depolarization, dose dependence (S. aureus USA300 LAC [1]; peptide 4, 8, 16 and 32 µM): dose-dependent manner
- HC50 (50% hemolytic concentration) (Human red blood cells; red cells of human): greater than 200 µM
- MIC (K. pneumoniae E406-17): ≥32 µM
- Effect on growth at 32 μM (K. pneumoniae E406-17; K. pneumoniae E406-17, peptide 32 μM): poor effect
- Biofilm disruption [3]: ~ 70%
- Disruption of 48 h biofilms [3]: dose-dependent biofilm disruption
- Reduction of 24 h biofilms [3]: dose-dependent manner
- tHPLC (HPLC retention time) [4]: 12.291 min
